Holding throughout (assay type): cell-based
One assay has as its system cardiac cells (H9C2). Nature of the assay: Protective effect against t-BHP-induced cell death in cardiac cells (LDH release). The settings on record: Rattus norvegicus, t-BHP 400 PM, 2 hours, read-out: EC50, protective effect against cell death due to t-BHP induction. The essentials:
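H9C2 cells were pretreated 15–20 min with compound at final 0.001–30 PM (so in the source), then exposed to t-BHP at final 400 PM for 2 h. LDH released into supernatant was measured colorimetrically at 490 nm after 15 min room-temperature reaction, and EC50 derived.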
On the technique in general: Release of lactate dehydrogenase indicates damage to the cell membrane.

Assay [1] concerns MLE-12 cells. Nature of the assay: Inhibitory effect on mitochondrial lipid ROS (MitoPerOx) under RSL3. The settings on record: 1 μM RSL3, 2 hours, compound 0.01, 0.1, 1 μM, FIG. 2. How it is done: To confirm the protective effect against mito-lipid ROS in lung epithelial cells, MLE-12 cells were seeded at 2×10^5 cells/well in a 12-well plate and cultured for 18 to 24 hours. Example Compound 29 and Fer-1 were diluted to have the final concentration of 0.01, 0.1, and 1 μM and added to each well, and the cells were cultured for 10 minutes. Afterward, RSL3 was treated to have the final concentration of 1 M, and the cells were cultured for 2 hours. To confirm the inhibitory effect on mito-lipid ROS, the fluorescent mitochondria-targeted lipid peroxidation probe MitoPerOx (abcam; ab146820) was used. According to the manufacturer's protocol, MitoPerOx was diluted in the culture broth to have the final concentration of 1 μM and treated, and fluorescence staining was performed after a 30-minute reaction. The MLE-12 cells that were fluorescence-stained with MitoPerOx were detached from the 12-well plate using 0.25% trypsin-EDTA and transferred to a microtube. Fluorescence (Ex/Em=495 nm/520-590 nm) was measured using BD FACSLyric™, and the relative change compared to the control was calculated.

For assay [2], the system named is MLE-12 cells. Nature of the assay: Inhibitory effect on mito-ROS (MitoSOX) under RSL3. As to conditions: 1 μM RSL3, 2 hours, FIG. 4. How it is done:
To confirm the protective effect against mito-ROS in lung epithelial cells, MILE-12 cells were seeded at 2×10^5 cells/well in a 12-well plate and cultured for 18 to 24 hours. Example Compound 29 and Fer-1 were diluted to have the final concentration of 0.01, 0.1, 1 and 10 M and added to each well, and the cells were cultured for 10 minutes. Afterward, RSL3 was treated to have the final concentration of 1 M, and the cells were cultured for 2 hours. To confirm the inhibitory effect on mito-ROS, the mitochondrial superoxide indicator MitoSOX™ (Invitrogen™; C6827) was used. According to the manufacturer's protocol, MitoSOX was diluted in the culture broth to have the final concentration of […], and fluorescence staining was performed after a 30-minute reaction. The MLE-12 cells fluorescence-strained with MitoSOX were detached from the 12-well plate using 0.25% trypsin-EDTA and transferred to a microtube, and fluorescence (Ex/Em=˜396 nm/610 nm) was measured using BD FACSLyric™, and the relative change compared to the control (RSL3-untreated group) was calculated.

Assay [3] deals with MLE-12 cells. Nature of the assay: Inhibitory effect on intracellular lipid ROS (BODIPY 581/591 C11) under RSL3. As to conditions: 1 μM RSL3, 2 hours, compound 0.01, 0.1, 1 μM, FIG. 1. How it is done: To confirm the protective effect against intracellular lipid ROS in lung epithelial cells, MLE-12 cells were seeded at 2×10^5 cells/well in a 12-well plate and cultured for 18 to 24 hours. Example Compound 29 and Fer-1 were diluted to have the final concentration of 0.01, 0.1, and 1 μM and added to each well, and the cells were cultured for 10 minutes. Afterward, RSL3 was treated to have the final concentration of 1 μM, and the cells were cultured for 2 hours. To confirm the intracellular inhibitory effect on lipid ROS, the lipid peroxidation sensor BODIPY™ 581/591 C11 (Invitrogen™; D3861) was used. According to the manufacturer's protocol, the BODIPY™ 581/591 C11 was diluted in the culture broth to have the final concentration of […] and treated, and fluorescence staining was performed after a 30-minute reaction. The MILE-12 cells that were fluorescence-stained with BODIPY™ 581/591 C11 were detached from the 12-well plate using 0.25% trypsin-EDTA and transferred to a microtube. Fluorescence (Ex/Em=500-650 nm/510-665 nm) was measured using BD FACSLyric™, and the relative change compared to the control was calculated.

Assay [4] has as its system retinal epithelial cells (ARPE-19). Nature of the assay: Protective effect against cell death due to RSL3 (LDH release), ARPE-19. As to conditions: RSL3 0.3 μM, 24 hours. How it is done:
(§1) To confirm cell death protection effects on cardiac cells, adrenal medullary cells, renal fibroblasts, retinal epithelial cells, lung epithelial cells, renal proximal tubular epithelial cells, hippocampal neurons and fibroblasts, each type of cells were seeded at 4×10^3 to 1.2×10^4 cells/well in a 96-well plate and cultured for 18 to 24 hours. The example compounds were diluted to have the final concentration of 0.001, 0.003, 0.01, 0.3, 1, 3, and 10 μM, respectively, and then added to different wells and cultured for 15 to 20 minutes. […] To confirm the cell death protection effect of the example compounds, the degree of extracellular secretion of lactate dehydrogenase (LDH) was measured using a cytotoxicity LDH assay kit [Dojindo; CK12]. Briefly, at the end of 24-hour treatment of each type of cells with RSL3, 70 μL of the supernatant was taken from the 96-well plate where the cells were cultured and transferred to a new 96-well plate. The assay buffer included in the kit was added at 70 μL/well (equal to that of the sample) and the plate was covered with foil to block light and allowed to react for 15 to 20 minutes at room temperature. While observing a color change of the sample, 35 µL/well of a stop solution was added, an absorbance at 490 nm was measured using an iD3 spectrophotometer, and an EC50 value was calculated.

Assay [5] relates to adrenal medullary cells (PC-12). Nature of the assay: Protective effect against cell death due to RSL3 (LDH release), PC-12. The settings on record: RSL3 0.3 μM, 24 hours. How it is done:
as §1

The structures appear in SMILES notation.

By EC50 is commonly meant the concentration that produces a half-maximal response. Regarding `OCCOCCOCc1cc(NC2CCOCC2)c2[nH]c(-c3ccccc3)cc2c1` [Example 29, 2-(2-((2-phenyl-7-((tetrahydro-2H-pyran-4-yl)amino)-1H-indol-5-yl)methoxy)ethoxy)ethan-1-ol], the EC50 in the assay on cardiac cells (H9C2) was not above 0.3 µM; in assay [4] (Homo sapiens), not above 0.1 µM; in assay [5] (Rattus norvegicus), 0.1 to 1 µM. Besides, the “mito-lipid ROS increased by RSL3 treatment” value with MLE-12 cells [1] is reported as “significantly decreased at 1 μM”. In the assay on MLE-12 cells [2], the “mito-ROS increased by RSL3 treatment” value is “significantly decreased at 0.01, 0.1, and 1 μM”. For the same compound, in the assay with MLE-12 cells [3], the “intracellular lipid ROS increased by RSL3 treatment” value was “significantly decreased at 0.01, 0.1, and 1 μM”.

On to `CCOC(=O)c1ccc(NC2CCCCC2)c(N)c1` [Fer-1, ferrostatin-1, reference compound], for which, in the assay on MLE-12 cells [1], the “mito-lipid ROS increased by RSL3 treatment” value is recorded as “significantly decreased at 1 μM”. Besides, the “mito-ROS increased by RSL3 treatment” value in the assay on MLE-12 cells [2] is “significantly decreased at 0.01, 0.1, and 1 μM”. For the same compound, the “intracellular lipid ROS increased by RSL3 treatment” value with MLE-12 cells [3] was “significantly decreased at 0.01, 0.1, and 1 μM”. In addition, the EC50 in assay [4] and in assay [5] was not above 0.1 µM in each case.

Source of the values: patent US20260159481A1, “INDOLE DERIVATIVE WITH SUBSTITUENT AND PHARMACEUTICAL USE” (MITOIMMUNE THERAPEUTICS INC., priority 2023, published 2026).
